Assay results as given in ChEMBL document CHEMBL1255229, “Novel antimicrobial peptides that exhibit activity against select agents and other drug resistant bacteria” (2010).
Converted amounts (≈) assume the structure as drawn. Starred links: 1 amine or outer side, 2 acyl side, 3 side chain; linkers in the order of their positions; H or OH if unused. Non-standard residues stand in square brackets, D forms with d. Residues, ends and D or L forms follow the SMILES beside them. ξ: configuration not given here. Pro(3ξ,4ξ-(CH2)4) = O=C(O)[C@H]1NCC2CCCCC21; X1 = O=C([C@@H]1CN([*:1])C2CCCCC21)[*:2]; Tic = O=C(O)[C@@H]1Cc2ccccc2CN1; Orn = NCCC[C@H](N)C(=O)O; Dab = NCC[C@H](N)C(=O)O; Ahx = NCCCCCC(=O)O

Assays:
Type in all cases: functional
Acinetobacter baumannii [1] = assay: Antimicrobial activity against Acinetobacter baumannii ATCC 19606 after 24 hrs; settings: ATCC 19606 = CIP 70.34 = JCM 6841, 24 h
Acinetobacter baumannii [2] = assay: Antimicrobial activity against Acinetobacter baumannii WRAIR after 24 hrs
Staphylococcus aureus = assay: Antimicrobial activity against methicillin-resistant Staphylococcus aureus ATCC 33591 after 24 hrs; settings: ATCC 33591, 24 h
Yersinia pestis = assay: Antimicrobial activity against Yersinia pestis CO92 after 24 hrs; settings: CO92, 24 h
Brucella melitensis = assay: Antimicrobial activity against Brucella melitensis 16 M after 24 hrs
Brucella abortus = assay: Antimicrobial activity against Brucella abortus 2308 after 24 hrs; settings: Brucella abortus, 2308, 24 h
Brucella suis = assay: Antimicrobial activity against Brucella suis ATCC 23445 after 24 hrs; settings: ATCC 23445, 24 h
Bacillus anthracis = assay: Antimicrobial activity against Bacillus anthracis Ames after 24 hrs
Francisella tularensis = assay: Antimicrobial activity against Francisella tularensis SCHU-S4 after 24 hrs; settings: SCHU-S4, 24 h
Burkholderia mallei = assay: Antimicrobial activity against Burkholderia mallei ATCC 23444 after 24 hrs; settings: ATCC 23444, 24 h
[3] = system: Burkholderia pseudomallei; assay: Antimicrobial activity against Burkholderia pseudomallei BURK003(1026b) after 24 hrs

Compound | MIC (Acinetobacter baumannii [1]) [µM] | MIC (Acinetobacter baumannii [2]) [µM] | MIC (Staphylococcus aureus) [µM] | MIC (Yersinia pestis) [µM] | MIC (Brucella melitensis) [µM] | MIC (Brucella abortus) [µM] | MIC (Brucella suis) [µM] | MIC (Bacillus anthracis) [µM] | MIC (Francisella tularensis) [µM] | MIC (Burkholderia mallei) [µM] | MIC [3] [µM]
CC(C)C[C@H](NC(=O)[C@@H](N)CCCN)C(=O)N1Cc2ccccc2C[C@H]1C(=O)N1C[C@@H](C(=O)N[C@@H](CCCN)C(=O)N2Cc3ccccc3C[C@H]2C(=O)N2C[C@@H](C(=O)N[C@@H](Cc3ccccc3)C(=O)N3Cc4ccccc4C[C@H]3C(=O)N3C[C@@H](C(=O)N[C@@H](CCCN)C(=O)N4Cc5ccccc5C[C@H]4C(=O)N4C[C@@H](C(=O)N[C@@H](Cc5ccccc5)C(=O)N5Cc6ccccc6C[C@H]5C(=O)N5C[C@@H](C(=O)N[C@@H](CCCN)C(=O)N6Cc7ccccc7C[C@H]6C(=O)N6C[C@@H](C(=O)N[C@@H](CCCN)C(=O)N[C@@H](CCCN)C(=O)N[C@@H](CCCN)C(=O)N[C@@H](CCCN)C(N)=O)C7CCCCC76)C6CCCCC65)C5CCCCC54)C4CCCCC43)C3CCCCC32)C2CCCCC21 (stereo not given in full) (H-[Orn]L[Tic][X1][Orn][Tic][X1]F[Tic][X1][Orn][Tic][X1]F[Tic][X1][Orn][Tic][X1][Orn][Orn][Orn][Orn]-NH2) | 9.77 (≈ 31.3 µg/mL) | 156 (≈ 499 µg/mL) | 156 (≈ 499 µg/mL) | 156 (≈ 499 µg/mL) | 156 (≈ 499 µg/mL) | 156 (≈ 499 µg/mL) | 156 (≈ 499 µg/mL) | 156 (≈ 499 µg/mL) | 156 (≈ 499 µg/mL) | 156 (≈ 499 µg/mL) | 156 (≈ 499 µg/mL)
CC(=O)NCCCCCC(=O)N[C@@H](Cc1ccccc1)C(=O)N1Cc2ccccc2C[C@H]1C(=O)N1CC2CCCCC2[C@H]1C(=O)NCCCCCC(=O)N[C@@H](CCCCN)C(=O)N1Cc2ccccc2C[C@H]1C(=O)N1CC2CCCCC2[C@H]1C(=O)NCCCCCC(=O)N[C@@H](Cc1ccccc1)C(=O)N1Cc2ccccc2C[C@H]1C(=O)N1CC2CCCCC2[C@H]1C(=O)NCCCCCC(=O)N[C@@H](CCCCN)C(=O)N1Cc2ccccc2C[C@H]1C(=O)N[C@@H](CCCCN)C(=O)N[C@@H](CCCCN)C(=O)N[C@@H](CCCCN)C(=O)N[C@@H](CCCCN)C(N)=O (stereo not given in full) (Ac-[Ahx]F[Tic][Pro(3ξ,4ξ-(CH2)4)][Ahx]K[Tic][Pro(3ξ,4ξ-(CH2)4)][Ahx]F[Tic][Pro(3ξ,4ξ-(CH2)4)][Ahx]K[Tic]KKKK-NH2) | 5.9 (≈ 15.7 µg/mL) | 2.9 (≈ 7.73 µg/mL) | 187 (≈ 498 µg/mL) | 23.4 (≈ 62.4 µg/mL) | 93 (≈ 248 µg/mL) | 12 (≈ 32 µg/mL) | 47 (≈ 125 µg/mL) | 1.5 (≈ 4 µg/mL) | 23.4 (≈ 62.4 µg/mL) | 187 (≈ 498 µg/mL) | 187 (≈ 498 µg/mL)
CC(=O)NCC(=O)N[C@@H](Cc1ccccc1)C(=O)N1Cc2ccccc2C[C@H]1C(=O)N1C[C@@H](C(=O)NCC(=O)N[C@@H](CCN)C(=O)N2Cc3ccccc3C[C@H]2C(=O)N2C[C@@H](C(=O)NCC(=O)N[C@@H](Cc3ccccc3)C(=O)N3Cc4ccccc4C[C@H]3C(=O)N3C[C@@H](C(=O)NCC(=O)N[C@@H](CCN)C(=O)N4Cc5ccccc5C[C@H]4C(=O)N[C@@H](CCN)C(=O)N[C@@H](CCN)C(=O)N[C@@H](CCN)C(=O)N[C@@H](CCN)C(N)=O)C4CCCCC43)C3CCCCC32)C2CCCCC21 (stereo not given in full) (Ac-GF[Tic][X1]G[Dab][Tic][X1]GF[Tic][X1]G[Dab][Tic][Dab][Dab][Dab][Dab]-NH2) | 3.4 (≈ 7.73 µg/mL) | 3.4 (≈ 7.73 µg/mL) | 220 (≈ 500 µg/mL) | 220 (≈ 500 µg/mL) | 220 (≈ 500 µg/mL) | 220 (≈ 500 µg/mL) | 220 (≈ 500 µg/mL) | 6.8 (≈ 15.5 µg/mL) | 220 (≈ 500 µg/mL) | 220 (≈ 500 µg/mL) | 220 (≈ 500 µg/mL)
CC(=O)N[C@@H](Cc1ccccc1)C(=O)N1Cc2ccccc2C[C@H]1C(=O)N1CC2CCCCC2[C@H]1C(=O)N[C@@H](CCCCN)C(=O)N1Cc2ccccc2C[C@H]1C(=O)N1CC2CCCCC2[C@H]1C(=O)N[C@@H](Cc1ccccc1)C(=O)N1Cc2ccccc2C[C@H]1C(=O)N1CC2CCCCC2[C@H]1C(=O)N[C@@H](CCCCN)C(=O)N1Cc2ccccc2C[C@H]1C(=O)N[C@@H](CCCCN)C(=O)N[C@@H](CCCCN)C(=O)N[C@@H](CCCCN)C(=O)N[C@@H](CCCCN)C(=O)N[C@@H](CCCCN)C(=O)N[C@@H](CCCCN)C(N)=O (stereo not given in full) (Ac-F[Tic][Pro(3ξ,4ξ-(CH2)4)]K[Tic][Pro(3ξ,4ξ-(CH2)4)]F[Tic][Pro(3ξ,4ξ-(CH2)4)]K[Tic]KKKKKK-NH2) | 6.3 (≈ 15.6 µg/mL) | 6.3 (≈ 15.6 µg/mL) | 25.3 (≈ 62.5 µg/mL) | 101 (≈ 249 µg/mL) | 202 (≈ 499 µg/mL) | 101 (≈ 249 µg/mL) | 13 (≈ 32.1 µg/mL) | 0.75 (≈ 1.85 µg/mL) | 202 (≈ 499 µg/mL) | 202 (≈ 499 µg/mL) | 202 (≈ 499 µg/mL)
CC(C)C[C@H](NC(=O)[C@@H](N)CCCCN)C(=O)N1Cc2ccccc2C[C@H]1C(=O)N1C[C@@H](C(=O)NCC(=O)N[C@@H](CCCCN)C(=O)N2Cc3ccccc3C[C@H]2C(=O)N2C[C@@H](C(=O)N[C@@H](Cc3ccccc3)C(=O)N3Cc4ccccc4C[C@H]3C(=O)N3C[C@@H](C(=O)NCC(=O)N[C@@H](CCCCN)C(=O)N4Cc5ccccc5C[C@H]4C(=O)N4C[C@@H](C(=O)N[C@@H](Cc5ccccc5)C(=O)N5Cc6ccccc6C[C@H]5C(=O)N5C[C@@H](C(=O)NCC(=O)N[C@@H](CCCCN)C(=O)N6Cc7ccccc7C[C@H]6C(=O)N6C[C@@H](C(=O)N[C@@H](CCCCN)C(=O)N[C@@H](CCCCN)C(=O)N[C@@H](CCCCN)C(=O)N[C@@H](CCCCN)C(N)=O)C7CCCCC76)C6CCCCC65)C5CCCCC54)C4CCCCC43)C3CCCCC32)C2CCCCC21 (stereo not given in full) (H-KL[Tic][X1]GK[Tic][X1]F[Tic][X1]GK[Tic][X1]F[Tic][X1]GK[Tic][X1]KKKK-NH2) | 4.6 (≈ 16 µg/mL) | 144 (≈ 502 µg/mL) | 17.9 (≈ 62.4 µg/mL) | 144 (≈ 502 µg/mL) | 144 (≈ 502 µg/mL) | 144 (≈ 502 µg/mL) | 144 (≈ 502 µg/mL) | 8.97 (≈ 31.2 µg/mL) | 144 (≈ 502 µg/mL) | 144 (≈ 502 µg/mL) | 144 (≈ 502 µg/mL)
